Laboratory results from patent US11028075B2, “Therapeutic compounds and methods of use thereof” (GENENTECH, INC., priority 2018, dated 2021).
Structures can show the parent of a compound that is named as a salt.

Experiments:
[1] = biological target: T1, hNav1.7 (Homo sapiens (Human), UniProt Q15858); assay: Tritiated compound binding to membranes from cells heterologously expressing hNav1.7 and the β1 subunit (Nav1.7 LBA); details: competitive binding vs [3H]compound, membranes with hNav1.7 and β1 subunit; read-out: Nav1.7 LBA EVO IC50
Experimental: Example 93A. Tritiated Compound Binding to Membranes Isolated from Cells that Heterologously Express hNav1.7 and the β1 Subunit
Preparation of membranes containing recombinantly expressed sodium channels: Frozen recombinant cell pellets are thawed on ice and diluted to 4 times the cell pellet weight with ice cold 50 mM Tris HCl, pH 7.4 buffer. The cell suspensions are homogenized on ice using a motorized glass dounce homogeniser. Homogenates are further diluted 8.4 times with ice cold 50 mM Tris HCl, pH 7.4 buffer and then centrifuged at 200×g at 4° C. for 15 minutes. The supernatants are collected and centrifuged at 10000×g at 4° C. for 50 min. The pellets are then re-suspended in 100 mM NaCl, 20 mM Tris HCl, pH 7.4 buffer containing 1% v/v protease inhibitors (Calbiochem) and re-homogenized on ice. The homogenized membranes are then processed through a syringe equipped with a 26 gauge needle. Protein concentrations arer determined by Bradford Assay and the membranes are stored at −80° C.
Saturation experiments. A competitive NaV1.7 inhibitor having a methyl group is tritiated. Three tritiums are incorporated in place of methyl hydrogens to generate [^3H]compound. Binding of this radioligand is performed in 5 mL borosilicate glass test tubes at room temperature. Binding is initiated by adding membranes to increasing concentrations of [^3H]compound in 100 mM NaCl, 20 mM Tris HCl, pH 7.4 buffer containing 0.01% w/v bovine serum albumin (BSA) for 18 h. Non-specific binding is determined in the presence of 1 μM unlabeled compound. After 18 h, the reactants are filtered through GF/C glass fiber filters presoaked in 0.5% w/v polyethylene imine. Filters are washed with 15 mL ice cold 100 mM NaCl, 20 mM Tris HCl, pH7.4 buffer containing 0.25% BSA to separate bound from free ligand. [^3H]compound bound to filters is quantified by liquid scintillation counting.
Binding reactions are performed in 96-well polypropylene plates at room temperature for 18 h. In 360 μL, membranes are incubated with […] [^3H]compound and increasing concentrations of Test Compound. Non-specific binding is defined in the presence of 1 μM unlabeled compound. Reactions are transferred and filtered through 96-well glass fiber/C filter plates presoaked with 0.5% polyethylene imine. The filtered reactions are washed 5 times with 200 μL ice cold buffer containing 0.25% BSA. Bound radioactivity is determined by liquid scintillation counting.
Data Analysis: For saturation experiments, non-specific binding is subtracted from total binding to provide specific binding and these values are recalculated in terms of pmol ligand bound per mg protein. Saturation curves are constructed and dissociation constants are calculated using the single site ligand binding model: Beq=(Bmax*X)/(X+Kd), where Beq is the amount of ligand bound at equilibrium, Bmax is the maximum receptor density, Kd is the dissociation constant for the ligand, and X is the free ligand concentration. For competition studies percent inhibition is determined and IC50 values are calculated using a 4 parameter logistic model (% inhibition=(A+((B−A)/(1+((x/C)^D)))) using XLfit, where A and B are the maximal and minimum inhibition respectively, C is the IC50 concentration and D is the (Hill) slope.
Example 93B. Tritiated Compound Binding to Membranes Isolated from Cells that Heterologous Express hNav1.7 and the β1 Subunit
Following the procedure described in Example 93A, and making modifications as required to: centrifuge supernatants at 100000×g instead of 10000×g; re-suspend pellets in a buffer containing 0.01% BSA in addition to 100 mM NaCl, 20 mM Tris HCl, pH 7.4 buffer, and 1% v/v proteasome inhibitors; and storing membranes at −80° C. in single use aliquots instead of pooled. […]
Target sequence in this assay (Q15858 whole entry, looked up): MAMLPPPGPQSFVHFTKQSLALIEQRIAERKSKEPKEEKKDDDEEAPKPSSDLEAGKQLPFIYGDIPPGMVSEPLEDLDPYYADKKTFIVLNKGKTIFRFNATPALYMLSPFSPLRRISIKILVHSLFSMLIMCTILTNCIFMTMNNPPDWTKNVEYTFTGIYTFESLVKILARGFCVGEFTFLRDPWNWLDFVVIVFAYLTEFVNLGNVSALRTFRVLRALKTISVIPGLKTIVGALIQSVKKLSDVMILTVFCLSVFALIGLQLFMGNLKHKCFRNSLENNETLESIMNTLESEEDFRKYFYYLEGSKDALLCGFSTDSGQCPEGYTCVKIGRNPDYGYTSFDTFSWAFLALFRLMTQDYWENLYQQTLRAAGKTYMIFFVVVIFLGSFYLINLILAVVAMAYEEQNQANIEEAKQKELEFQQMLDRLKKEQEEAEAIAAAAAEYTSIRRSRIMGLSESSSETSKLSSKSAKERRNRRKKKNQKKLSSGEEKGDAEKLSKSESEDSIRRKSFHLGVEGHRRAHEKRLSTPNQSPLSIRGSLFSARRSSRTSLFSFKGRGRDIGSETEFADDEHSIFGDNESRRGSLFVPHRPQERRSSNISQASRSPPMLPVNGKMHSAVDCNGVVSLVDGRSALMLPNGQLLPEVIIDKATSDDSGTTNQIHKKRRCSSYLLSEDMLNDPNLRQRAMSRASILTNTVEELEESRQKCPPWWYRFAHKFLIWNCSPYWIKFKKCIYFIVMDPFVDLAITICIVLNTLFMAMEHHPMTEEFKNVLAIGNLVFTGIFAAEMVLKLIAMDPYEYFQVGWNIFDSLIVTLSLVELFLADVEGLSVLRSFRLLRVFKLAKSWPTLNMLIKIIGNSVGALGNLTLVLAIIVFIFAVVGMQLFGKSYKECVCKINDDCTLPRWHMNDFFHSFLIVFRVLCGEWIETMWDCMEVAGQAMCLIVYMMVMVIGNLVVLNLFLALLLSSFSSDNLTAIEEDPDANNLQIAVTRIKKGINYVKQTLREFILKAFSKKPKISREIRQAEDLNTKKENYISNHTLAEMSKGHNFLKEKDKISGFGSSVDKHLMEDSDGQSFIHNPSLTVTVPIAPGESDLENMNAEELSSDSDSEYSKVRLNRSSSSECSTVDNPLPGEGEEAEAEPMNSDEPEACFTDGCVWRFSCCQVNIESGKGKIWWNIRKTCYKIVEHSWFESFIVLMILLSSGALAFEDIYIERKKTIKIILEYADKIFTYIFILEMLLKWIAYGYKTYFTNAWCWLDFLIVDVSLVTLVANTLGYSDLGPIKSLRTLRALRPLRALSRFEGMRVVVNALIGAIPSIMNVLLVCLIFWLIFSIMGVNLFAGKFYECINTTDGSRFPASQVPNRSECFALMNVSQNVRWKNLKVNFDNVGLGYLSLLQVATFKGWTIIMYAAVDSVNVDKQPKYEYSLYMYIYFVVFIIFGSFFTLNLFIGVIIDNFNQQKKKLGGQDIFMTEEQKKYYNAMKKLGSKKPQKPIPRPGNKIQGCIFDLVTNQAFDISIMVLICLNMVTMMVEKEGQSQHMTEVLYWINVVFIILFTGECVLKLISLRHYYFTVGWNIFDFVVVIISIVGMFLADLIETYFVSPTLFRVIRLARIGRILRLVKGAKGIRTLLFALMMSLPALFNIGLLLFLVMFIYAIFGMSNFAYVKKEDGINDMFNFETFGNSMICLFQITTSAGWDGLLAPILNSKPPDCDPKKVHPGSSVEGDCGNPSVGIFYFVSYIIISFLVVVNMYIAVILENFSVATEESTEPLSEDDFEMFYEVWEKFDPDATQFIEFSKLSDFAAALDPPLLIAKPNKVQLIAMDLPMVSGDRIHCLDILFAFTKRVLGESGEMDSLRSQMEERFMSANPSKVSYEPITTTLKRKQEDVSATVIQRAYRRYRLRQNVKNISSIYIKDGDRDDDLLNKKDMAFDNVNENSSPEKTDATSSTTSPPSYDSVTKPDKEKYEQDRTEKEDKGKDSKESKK
Target sequence in this assay (Q07699 whole entry partner, looked up): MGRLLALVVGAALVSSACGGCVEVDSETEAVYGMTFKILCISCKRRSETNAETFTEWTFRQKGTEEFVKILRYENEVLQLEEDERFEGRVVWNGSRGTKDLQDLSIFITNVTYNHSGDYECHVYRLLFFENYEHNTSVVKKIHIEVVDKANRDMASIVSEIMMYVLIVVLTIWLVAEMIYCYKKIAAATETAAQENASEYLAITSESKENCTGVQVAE

[2] = biological target: T1, hNav1.7; assay: Electrophysiological assay (EP), voltage clamp on Syncropatch 384PE, CHO cells stably expressing Nav1.7; assay type: cell-based; details: holding potential −50 mV, 7.5 min compound incubation, read-out: EP_SP hNav1.7 EVO IC50
Text: Example 93C. Electrophysiological Assay (EP) (In Vitro Assay)
Patch voltage clamp electrophysiology allows for the direct measurement and quantification of block of voltage-gated sodium channels (NaV's), and allows the determination of the time- and voltage-dependence of block which has been interpreted as differential binding to the resting, open, and inactivated states of the sodium channel (Hille, B., Journal of General Physiology (1977), 69: 497-515).
The following voltage clamp electrophysiology studies are performed on representative compounds using cells heterologously expressing Nav1.7 or Nav1.5 channels. cDNAsfor Nav1.7 (NM_002977) and Nav1.5 (AC137587) are stably expressed in Chinese Hamstr Ovary (CHO) cells and CHL (Chinese Hamster Lung) cells respectively. Sodium currents are measured in the whole-cell configuration using Syncropatch 384PE (Nanlon Technologies, Germany). 1NPC®-384 chips with custom medium resistance and single hole mode are used. Internal solution consists of (in mM): […], 10 […], 20 EGTA, and 10 Hepes (pH adjusted to 7.2); and external solution contains (in mM): 60 NMDG, 80 NaCl, 4 KCl, 1 MgCl2, 2 CaCl2, 2 D-Glucose monohydrate, 10 Hepes (pH adjusted to 7.4 with NaOH).
After system flushing, testing compounds are dissolved in external solution containing 0.1% Pluronic F-127. The chip is moved into the measuring head and the instrument primes the chip with external and internal solutions. 10 μl cells are added to the chip from a cell hotel, and a negative pressure of −50 mBar is applied to form a seal. Following treatment with seal enhancer solution and wash-off with external solution, negative pressure of −250 mbar is applied for 1 second to achieve the whole-cell configuration, followed by three washing steps in external solution. 20 μl of compounds is added to 40 μl in each well (1:3 dilution of compounds), and after mixing, 20 μl is removed so the volume is retained at 40 μl. After approximately 13 minutes recordings, 20 μl/well of 2 uM TTX, or 333 uM Tetracaine (for Nav1.5) is added to achieve full block.
For voltage protocol, an holding potential of −50 mV is applied during the whole experiment. A depolarizing step is applied to −10 mV for 10 ms, followed by a hyperpolarization step to −150 mV for 20 ms to allow channel recovery from inactivation. A second depolarizing step is applied from −150 mV to −10 mV for 10 ms, where currents are measured to derive blocking effects of compounds. Inhibition is determined based on 7.5 min of compound incubation.
Target sequence in this assay (Q15858 other isoform, or with tags, fused parts or gaps): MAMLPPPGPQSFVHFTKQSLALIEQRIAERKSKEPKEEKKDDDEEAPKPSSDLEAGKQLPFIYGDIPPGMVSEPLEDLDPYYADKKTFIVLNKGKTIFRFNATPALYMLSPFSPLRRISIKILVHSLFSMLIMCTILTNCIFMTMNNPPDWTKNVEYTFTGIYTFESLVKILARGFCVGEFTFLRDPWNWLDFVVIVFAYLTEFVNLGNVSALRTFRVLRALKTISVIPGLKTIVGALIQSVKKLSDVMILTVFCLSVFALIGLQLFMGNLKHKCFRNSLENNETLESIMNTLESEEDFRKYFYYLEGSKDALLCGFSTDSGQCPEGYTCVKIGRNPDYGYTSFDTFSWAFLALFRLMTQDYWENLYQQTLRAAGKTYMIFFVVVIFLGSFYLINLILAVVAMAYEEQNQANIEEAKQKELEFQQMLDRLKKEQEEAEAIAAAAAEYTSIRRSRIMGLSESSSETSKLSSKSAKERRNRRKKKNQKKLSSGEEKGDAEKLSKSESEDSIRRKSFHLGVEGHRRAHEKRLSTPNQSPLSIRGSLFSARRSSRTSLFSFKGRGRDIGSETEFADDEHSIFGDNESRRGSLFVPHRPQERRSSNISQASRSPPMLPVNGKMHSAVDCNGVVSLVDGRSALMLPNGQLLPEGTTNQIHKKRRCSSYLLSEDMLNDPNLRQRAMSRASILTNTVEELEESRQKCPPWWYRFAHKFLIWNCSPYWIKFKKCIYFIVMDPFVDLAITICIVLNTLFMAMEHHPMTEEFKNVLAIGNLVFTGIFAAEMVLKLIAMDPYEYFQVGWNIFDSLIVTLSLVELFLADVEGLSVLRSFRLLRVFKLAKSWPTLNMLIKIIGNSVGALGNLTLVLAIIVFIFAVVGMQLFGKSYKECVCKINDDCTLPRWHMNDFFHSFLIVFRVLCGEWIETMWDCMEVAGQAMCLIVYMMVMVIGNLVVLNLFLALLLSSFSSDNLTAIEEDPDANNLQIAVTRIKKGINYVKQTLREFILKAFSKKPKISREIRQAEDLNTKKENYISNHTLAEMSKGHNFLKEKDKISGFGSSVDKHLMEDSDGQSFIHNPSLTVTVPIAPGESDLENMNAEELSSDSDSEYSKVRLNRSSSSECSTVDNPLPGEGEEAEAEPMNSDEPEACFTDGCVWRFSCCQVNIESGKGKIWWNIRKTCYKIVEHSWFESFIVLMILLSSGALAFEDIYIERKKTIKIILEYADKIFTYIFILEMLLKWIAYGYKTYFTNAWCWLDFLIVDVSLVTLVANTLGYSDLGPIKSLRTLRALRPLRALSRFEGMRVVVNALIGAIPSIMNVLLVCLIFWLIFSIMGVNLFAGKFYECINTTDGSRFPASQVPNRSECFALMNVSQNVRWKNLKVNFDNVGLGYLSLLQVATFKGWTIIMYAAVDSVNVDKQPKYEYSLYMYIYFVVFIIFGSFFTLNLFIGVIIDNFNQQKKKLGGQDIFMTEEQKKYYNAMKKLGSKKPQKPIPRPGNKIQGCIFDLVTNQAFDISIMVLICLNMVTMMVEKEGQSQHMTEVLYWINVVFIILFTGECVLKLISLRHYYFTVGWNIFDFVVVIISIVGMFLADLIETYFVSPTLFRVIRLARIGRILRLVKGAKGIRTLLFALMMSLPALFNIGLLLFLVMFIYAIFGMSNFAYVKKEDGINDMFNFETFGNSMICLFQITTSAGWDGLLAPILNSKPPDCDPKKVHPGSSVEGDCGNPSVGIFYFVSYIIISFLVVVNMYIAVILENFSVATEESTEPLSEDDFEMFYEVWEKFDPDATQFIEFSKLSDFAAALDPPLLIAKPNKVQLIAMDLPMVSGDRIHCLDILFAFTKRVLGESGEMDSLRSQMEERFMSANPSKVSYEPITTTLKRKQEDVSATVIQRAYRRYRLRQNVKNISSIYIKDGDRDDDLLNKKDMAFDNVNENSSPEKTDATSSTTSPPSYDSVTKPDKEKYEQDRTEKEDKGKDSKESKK

Row | SMILES | IC50 [1] | IC50 [2]
1 | CN(C)[C@H]1C[C@@H](c2cccc(-n3cccn3)c2)CC[C@@H]1Nc1cc(F)c(S(=O)(=O)Nc2ccncn2)cc1Cl [Example 20, 4-(((1S,2S,4S)-4-(3-(1H-pyrazol-1-yl)phenyl)-2-(dimethylamino)cyclohexyl)amino)-5-chloro-2-fluoro-N-(pyrimidin-4-yl)benzenesulfonamide formate] | 9.43 nM | 7.38 nM
2 | CN(C)[C@H]1C[C@@H](c2cccc(OC3CC3)c2)CC[C@@H]1Nc1cc(F)c(S(=O)(=O)Nc2ccncn2)cc1Cl [Example 43] | 7 nM | 1.12 nM
3 | CN(C)[C@H]1C[C@@H](c2cccc(C(C)(F)F)c2)CC[C@@H]1Nc1cc(F)c(S(=O)(=O)Nc2ccncn2)cc1Cl [Example 32, 5-chloro-4-(((1S,2S,4S)-4-(3-(1,1-difluoroethyl)phenyl)-2-(dimethylamino)-cyclohexyl)-amino)-2-fluoro-N-(pyrimidin-4-yl)benzenesulfonamide] | 2.04 nM | 1.6 nM
4 | CN(C)[C@H]1C[C@@H](c2cccc(C(F)(F)F)c2Cl)CC[C@@H]1Oc1cc(F)c(S(=O)(=O)Nc2ccncn2)cc1Cl [Example 92, 5-chloro-4-(((1S,2S,4S)-4-(2-chloro-3-(trifluoromethyl)phenyl)-2-(dimethylamino)-cyclohexyl)oxy)-2-fluoro-N-(pyrimidin-4-yl)benzenesulfonamide] | 55.7 nM | 3.99 nM
5 | CN1CC[C@H](C(=O)N(C)[C@H]2C[C@@H](c3cccc(C(F)(F)F)c3)CC[C@@H]2Nc2cc(F)c(S(=O)(=O)Nc3ccncn3)cc2Cl)C1 [Example 33, (S)—N-((1S,2S,5S)-2-((2-chloro-5-fluoro-4-(N-(pyrimidin-4-yl)sulfamoyl)phenyl)amino)-5-(3-(trifluoromethyl)phenyl)cyclohexyl)-N,1-dimethylpyrrolidine-3-carboxamide] | 2.45 nM | 0.629 nM
6 | CN(C)[C@H]1C[C@@H](c2cccc(F)c2)CC[C@@H]1Nc1cc(F)c(S(=O)(=O)Nc2ccncn2)cc1Cl [Example 26, 5-Chloro-4-(((1S,2S,4S)-2-(dimethylamino)-4-(3-fluorophenyl)cyclohexyl)amino)-2-fluoro-N-(pyrimidin-4-yl)benzenesulfonamide formate] | 11.8 nM | 2.97 nM
7 | CN(C)[C@H]1C[C@@H](c2cccc(C(F)(F)F)c2)CC[C@@H]1Oc1ccc(S(=O)(=O)Nc2ccncn2)c(F)c1 [Example 57, 4-(((1S,2S,4S)-2-(Dimethylamino)-4-(3-(trifluoromethyl)phenyl)cyclohexyl)oxy)-2-fluoro-N-(pyrimidin-4-yl)benzenesulfonamide formate] | 35.3 nM | 2.59 nM
8 | O=S(=O)(Nc1ccncn1)c1cc(F)c(N[C@H]2CC[C@H](c3cccc(C(F)(F)F)c3F)C[C@@H]2N2CCCC2)cc1F [Example 70, 2,5-difluoro-4-(((1S,2S,4S)-4-(2-fluoro-3-(trifluoromethyl)phenyl)-2-(pyrrolidin-1-yl)cyclohexyl)-amino)-N-(pyrimidin-4-yl)benzenesulfonamide hydrochloride] | 7.22 nM | 0.966 nM
9 | O=S(=O)(Nc1ccncn1)c1cc(F)c(N[C@H]2CC[C@H](c3cc(F)cc(C(F)(F)F)c3)C[C@@H]2N2CCCC2)cc1F [Example 85, 2,5-difluoro-4-(((1S,2S,4S)-4-(3-fluoro-5-(trifluoromethyl)phenyl)-2-(pyrrolidin-1-yl)cyclohexyl)-amino)-N-(pyrimidin-4-yl)benzenesulfonamide formate] | 2.24 nM | 0.494 nM

Now those with a lower IC50 [1], led by results:

Row | IC50 [1] | IC50 [2] | SMILES
10 | 1.03 nM | 1.55 nM | CN(C)[C@H]1C[C@@H](c2cc(C(F)(F)F)ccc2F)CC[C@@H]1Nc1cc(F)c(S(=O)(=O)Nc2ccncn2)cc1Cl [Example 17, 5-chloro-4-(((1S,2S,4S)-2-(dimethylamino)-4-(2-fluoro-5-(trifluoromethyl)phenyl)cyclohexyl)-amino)-2-fluoro-N-(pyrimidin-4-yl)benzenesulfonamide]
11 | 0.816 nM | 0.628 nM | O=S(=O)(Nc1ccncn1)c1cc(F)c(N[C@H]2CC[C@H](c3cccc(C(F)(F)F)c3)C[C@@H]2N2CCCCC2)cc1F [Example 62, 2,5-difluoro-4-(((1S,2S,4S)-2-(piperidin-1-yl)-4-(3-(trifluoromethyl)phenyl)cyclohexyl)-amino)-N-(pyrimidin-4-yl)benzenesulfonamide formate]
12 | 0.794 nM | 1.16 nM | O=S(=O)(Nc1ccncn1)c1cc2c(cc1F)N([C@H]1CC[C@H](c3cccc(C(F)(F)F)c3)C[C@@H]1N1CCCC1)CCO2 [Example 47, 6-Fluoro-N-(pyrimidin-4-yl)-4-((1S,2S,4S)-2-(pyrrolidin-1-yl)-4-(3-(trifluoromethyl)phenyl)-cyclohexyl)-3,4-dihydro-2H-benzo[b][1,4]oxazine-7-sulfonamide]
13 | 0.791 nM | 0.765 nM | CN(C)[C@H]1C[C@@H](c2ccc(F)c(C(F)(F)F)c2)CC[C@@H]1Nc1cc(F)c(S(=O)(=O)Nc2ccncn2)cc1Cl [Example 6, 5-chloro-4-(((1S,2S,4S)-2-(dimethylamino)-4-(4-fluoro-3-(trifluoromethyl)phenyl)-cyclohexyl)amino)-2-fluoro-N-(pyrimidin-4-yl)benzenesulfonamide]
14 | 0.623 nM | 0.534 nM | CN(CCO)[C@H]1C[C@@H](c2cccc(C(F)(F)F)c2)CC[C@@H]1Nc1cc(F)c(S(=O)(=O)Nc2ccncn2)cc1Cl [Example 41, 5-chloro-2-fluoro-4-(((1S,2S,4S)-2-((2-hydroxyethyl)(methyl)amino)-4-(3-(trifluoromethyl)-phenyl)cyclohexyl)amino)-N-(pyrimidin-4-yl)benzenesulfonamide]
